Reference: article PMC10815131, “Novel Pitolisant-Derived Sulfonyl Compounds for Alzheimer Disease” (International Journal of Molecular Sciences, 2024)
Where two headings read alike, the source gives them in different places.

What was measured:
[1] = molecular target: T1, AChE (Rattus norvegicus, UniProt P37136); assay: biochemical; details: for inhibition at 1 µM: tested at 1 μM, rat hippocampal homogenate, read-out: AChE Inhibition (%) ± SEM
T1 sequence (P37136 32-614): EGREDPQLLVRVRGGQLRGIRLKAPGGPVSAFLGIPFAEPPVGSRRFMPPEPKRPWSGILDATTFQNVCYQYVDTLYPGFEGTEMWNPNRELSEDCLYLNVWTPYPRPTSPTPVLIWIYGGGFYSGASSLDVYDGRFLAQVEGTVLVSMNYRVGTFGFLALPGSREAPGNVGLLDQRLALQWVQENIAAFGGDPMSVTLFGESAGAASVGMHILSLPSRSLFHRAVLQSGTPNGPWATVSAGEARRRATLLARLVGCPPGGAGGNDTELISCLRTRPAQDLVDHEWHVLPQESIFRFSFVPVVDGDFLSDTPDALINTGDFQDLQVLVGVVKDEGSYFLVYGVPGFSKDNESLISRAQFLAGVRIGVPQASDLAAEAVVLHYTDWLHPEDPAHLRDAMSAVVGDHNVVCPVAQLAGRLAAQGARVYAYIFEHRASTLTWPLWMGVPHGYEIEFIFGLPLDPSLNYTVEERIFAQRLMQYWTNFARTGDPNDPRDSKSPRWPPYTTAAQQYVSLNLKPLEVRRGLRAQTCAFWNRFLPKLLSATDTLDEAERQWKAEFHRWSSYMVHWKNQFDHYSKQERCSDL
Procedure: Male Wistar rats weighing 230–250 g were used. AChE activity was assessed using a colorimetric reported method with minor modifications. Hippocampal tissue was homogenized in 39 volumes of 75 mM sodium phosphate buffer (pH 7.4). A mixture of 2 mL containing the compounds assessed, acetylthiocholine iodide, and 50 μL tissue homogenate was incubated for 8 min. […] The extent of color production was measured spectrophometrically at 420 nm using Ultospec 3000 (Pharmacia Biotech, Piscataway, NJ, USA). All samples were assayed in triplicate. Results were expressed as percentages of control values.
Different concentrations of the compounds were tested for their ability to inhibit AChE activity.

[2] = for Pe: pig, PAMPA
[3] = in vitro; details: PAMPA
[4] = tested on: K+-evoked [3H]ACh efflux in rat hippocampal slices; assay: In vitro ACh release, K+-evoked [3H]ACh efflux; type: cell-based
Procedure: Male Wistar rats weighing 230–250 g were used. K^+-evoked [^3H]ACh efflux was measured as previously described [39]. Briefly, the hippocampus was removed and dissected, cut sagittally into 500 µm slices using a McIlwain tissue chopper (The Mickle Laboratory Engineering Co. Ltd., Dorking, UK). […] Fractions were collected at 3-min intervals for a total of 60 min. At 12 min (S1) and 45 min (S2) after equilibration, the slices were depolarized by changing the superfusion fluid during 6 min to a solution containing 20 mM KCl. Drugs were added 15 min before S2. Tritium content was assayed by liquid scintillation spectroscopy. S1 and S2 were calculated as K+-stimulated tritium increases over basal efflux. Results were expressed as the S2/S1 ratio.

| SMILES | inhibition at 1 µM [1] | PAMPA-BBB Classification [2] | Pe [2] | Papp [3] | K+-evoked [3H]ACh efflux [4] | Pe ([2]; 20 h, 500 µg/mL) | Papp at 20 h, 500 µg/mL [3] | AChE activity inhibition (in words) ([1]; 0.01–10 µM, in vitro) | IC50 ([1]; estimated from non-linear fitted dose-response curves, 0.01–10 µM) |
| --- | --- | --- | --- | --- | --- | --- | --- | --- | --- |
| NS(=O)(=O)c1ccc(OCCCN2CCOCC2)cc1 [Compound 3] | < 5% | – | – | – | – | – | – | – | – |
| O=C(Nc1cccc2ccccc12)NS(=O)(=O)c1ccc(OCCCN2CCCC2)cc1 [Compound 5] | 25.2 ± 7.7% | – | – | – | – | – | – | – | – |
| CN(C)c1ccc(NC(=O)NS(=O)(=O)c2ccc(OCCCN3CCCC3)cc2)cc1 [Compound 6] | 29.9 ± 3.63% | CNS − (key: CNS +/−: BBB permeation uncertain: Pe (10^−6 cm/s) from 4.0 to 2.0; CNS −: low BBB permeation predicted: Pe (10^−6 cm/s < 2.0) | 0.32 | 0.32 ± 0.01 ×10⁻⁶ cm/s | – | – | – | – | – |
| O=C(NC(c1ccccc1)c1ccccc1)NS(=O)(=O)c1ccc(OCCCN2CCCC2)cc1 [Compound 7] | > 37% | CNS − (key: CNS +/−: BBB permeation uncertain: Pe (10^−6 cm/s) from 4.0 to 2.0; CNS −: low BBB permeation predicted: Pe (10^−6 cm/s < 2.0) | – | – | able to increase ACh release in vitro | 0.47 | 0.47 ± 0.06 ×10⁻⁶ cm/s | significantly inhibit AChE activity in a concentration-dependent manner | > 10 µM |
